# Source: patent US12655142B2 (Merck Patent GmbH, priority 2019, dated 2026)
# Columns and labels:
# [1] = target: T1, GIST430/654 cell line expressing mutated constitutively active cKIT receptor tyrosine kinase (Δ560-576 deletion and V654A point mutation) (Homo sapiens, UniProt P10721, DEL560-576/V654A); assay: Cellular cKIT autophosphorylation (phospho-Y307-cKIT, Luminex bead assay) in GIST430/654 cells; assay type: cell-based; details: compounds 45 min, read-out: GIST 430/654 IC50
# T1 construct: endogenous in cells; host or cells: GIST430/654 cells
# Method in brief: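 Phospho-Y307 cKIT in lysates was measured on a Luminex bead assay, with total-cKIT capture overnight at 4 °C and phosphospecific plus PE secondary detection. Cells had 45 min exposure to a compound dilution series the day after plating: GIST430 (Δ560-576) or GIST430/654 (Δ560-576/V654A, grown with 100 nM imatinib). IC50 values are relative to 0.3% DMSO-treated cells.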
# c-Kit(V654A) = target: T2, c-Kit(V654A) (Homo sapiens, UniProt P10721, V654A); assay: c-Kit(V654A) assay (33P-ATP filter binding kinase assay); assay type: biochemical; details: recombinant human c-Kit aa 544-end V654A, ATP 200 μM
# T2 construct: recombinant human c-Kit, amino acids 544-end containing the V654A mutation; GST (N)
# Method in brief: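 Radiometric filter-binding read-out: substrate 33P incorporation counted by scintillation after P30 filtermat washes in 75 mM phosphoric acid and methanol. Enzyme: N-GST recombinant human c-Kit aa 544-end carrying V654A.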
# [2] = target: T3, GIST430 cell line expressing constitutive active cKIT receptor tyrosine kinase (Δ560-576 deletion) (Homo sapiens, UniProt P10721, DEL560-576); assay: Cellular cKIT autophosphorylation (phospho-Y307-cKIT, Luminex bead assay) in GIST430 cells; assay type: cell-based; details: cKIT autophosphorylation, GIST430 cells, compounds 45 min; read-out: GIST 430 IC50
# T3 construct: endogenous in cells; host or cells: GIST430 cells
# Experimental: Assay Principle for Cellular Testing of cKIT Mutant Inhibitors
# The GIST430 cell line expressing constitutive active cKIT receptor tyrosine kinase (Δ560-576 deletion) and the Imatinib resistant GIST430/654 cell line expressing mutated constitutively active cKIT receptor tyrosine kinase (Δ560-576 deletion and V654A point mutation) were employed for assessing cellular potency of compounds. Cellular activity of mutant cKIT was determined by the degree of cKIT autophosphorylation at tyrosine 307 using a Luminex-based bead assay. GIST430 cells were plated with 22,000 cells per well of a 96-well plate in 100 μl medium (85% IMDM/15% FCS) and GIST430/654 cells were plated with 25,000 cells per well of a 96-well plate in 100 μl medium (85% IMDM/15% FCS supplemented with 100 nM Imatinib). At the following day compounds were added in a serial dilution for 45 min. Then, cells were lysed with 90 μl lysis buffer (20 mM Hepes pH 7.5, 200 mM NaCl, 1.5 mM MgCl2×6H2O, 0.4 mM EDTA, 1% Triton-X-100, 1% Phosphatase-Inhibitor II, 20 mM β-Glycerolphosphat, 0.1% Protease-Inhibitor Cocktail III, 0.01% Benzonase) and lysates were cleared by centrifugation through a 96-well filter plate (0.65 μm). Samples were incubated with Luminex-beads which were coupled with an anti-total cKIT antibody overnight at 4° C. under gentle agitation. For detection of phospho-Y307-cKIT a phosphospecific antibody and a species-specific PE-labeled secondary antibody were added. The amount of phospho-Y307-cKIT was determined in a Luminex 200 instrument measuring 100 events per well within 60 seconds.
# Counts from samples treated with compounds were calculated as percent of control from solvent treated (0.3% DMSO) samples. Dose-response curves were fitted and IC50 values were determined using Genedata Screener software.
# [3] = Determination of Efflux-Ratio (ER) in Caco-2 cells; details: human, Caco-2, pH 7.4
# Experimental: Determination of Efflux-Ratio (ER) in Caco-2 Cells
# The efflux ratio of the test compounds was determined in Caco-2 human epithelial colorectal adenocarcinoma cell line (TC7 clone) using calculation of apparent permeability (Papp). Cell monolayers were differentiated in vitro for 14 days before the experiment. Subsequently, the test compound (in HBSS pH 7.4 at 1 μM final concentration) was applied on the donor side while HBSS buffer (pH 7.4) was added to the receiver wells. […] The plate was then incubated in a 5% CO2 incubator (37° C., 100% humidity). At the end of the 2 hours incubation period, 50 μL sample was removed from both donor and receiver wells and diluted 1:1 with equal volumes of acetonitrile for LC-MS/MS analysis. The LC-MS/MS analysis used a one-point calibration method from a 1 μM standard solution diluted 1:1 with equal volume of acetonitrile (consistent to the test samples).
# The data was used to calculate the apparent permeabilities of the compounds in both apical to basolateral (Papp,AB) and basolateral to apical (Papp,BA) directions at 1 μM concentration in duplicate. The Papp values were calculated from the concentrations in the donor and receiver compartments using the following formula:
# Efflux ratio was calculated according to the following formula:
# T3 sequence (P10721 with tags, fused parts or gaps DEL560-576): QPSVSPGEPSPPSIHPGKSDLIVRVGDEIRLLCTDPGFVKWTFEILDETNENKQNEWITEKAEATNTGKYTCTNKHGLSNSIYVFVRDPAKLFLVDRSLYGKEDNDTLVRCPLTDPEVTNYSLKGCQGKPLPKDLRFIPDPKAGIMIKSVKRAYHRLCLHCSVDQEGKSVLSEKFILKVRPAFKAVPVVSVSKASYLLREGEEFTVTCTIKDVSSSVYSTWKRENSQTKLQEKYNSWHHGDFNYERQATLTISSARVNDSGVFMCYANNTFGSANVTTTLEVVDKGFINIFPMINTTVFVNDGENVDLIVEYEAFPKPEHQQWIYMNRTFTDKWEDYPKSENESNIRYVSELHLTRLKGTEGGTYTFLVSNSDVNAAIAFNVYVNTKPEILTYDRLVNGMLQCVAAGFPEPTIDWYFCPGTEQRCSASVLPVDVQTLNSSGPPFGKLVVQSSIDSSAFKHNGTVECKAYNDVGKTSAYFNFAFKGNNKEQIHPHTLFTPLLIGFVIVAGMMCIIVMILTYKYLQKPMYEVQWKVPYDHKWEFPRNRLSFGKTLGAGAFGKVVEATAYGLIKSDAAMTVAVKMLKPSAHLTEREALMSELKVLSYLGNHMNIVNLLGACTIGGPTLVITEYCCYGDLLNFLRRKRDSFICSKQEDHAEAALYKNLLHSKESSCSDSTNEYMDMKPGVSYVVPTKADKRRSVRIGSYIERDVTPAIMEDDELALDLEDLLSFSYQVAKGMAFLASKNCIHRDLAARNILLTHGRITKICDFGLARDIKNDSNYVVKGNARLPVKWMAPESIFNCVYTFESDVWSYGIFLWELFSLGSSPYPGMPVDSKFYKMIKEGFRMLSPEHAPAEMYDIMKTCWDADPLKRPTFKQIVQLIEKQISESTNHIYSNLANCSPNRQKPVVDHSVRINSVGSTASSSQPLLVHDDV
# T1 sequence (P10721 with tags, fused parts or gaps DEL560-576/V654A): as the sequence (P10721 with tags, fused parts or gaps DEL560-576) above, with V612A counted along it
# T2 sequence (P10721 544-976 V654A): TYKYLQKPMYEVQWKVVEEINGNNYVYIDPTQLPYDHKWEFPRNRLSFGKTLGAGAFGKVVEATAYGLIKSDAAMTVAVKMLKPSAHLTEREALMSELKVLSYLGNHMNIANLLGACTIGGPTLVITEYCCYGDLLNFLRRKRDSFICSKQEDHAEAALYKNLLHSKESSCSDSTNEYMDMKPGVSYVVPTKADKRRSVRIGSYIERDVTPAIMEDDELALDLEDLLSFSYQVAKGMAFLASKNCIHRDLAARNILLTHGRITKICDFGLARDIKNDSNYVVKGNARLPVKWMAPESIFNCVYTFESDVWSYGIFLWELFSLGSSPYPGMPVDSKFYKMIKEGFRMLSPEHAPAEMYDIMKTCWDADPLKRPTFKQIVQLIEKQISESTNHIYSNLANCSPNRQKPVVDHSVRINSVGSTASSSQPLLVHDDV
Structure (SMILES),IC50 [1] [nM],IC50 (c-Kit(V654A)) [nM],IC50 [2] [nM],"efflux ratio at 2 h, 1 μM [3]"
"FC(F)(F)Oc1ccc(CNc2cc(-c3cnc4cc(OCCN5CCn6nncc6C5)ccn34)ncn2)cc1 [A265, 6-[7-(2-{4H,5H,6H,7H-[1,2,3]triazolo[1,5-a]pyrazin-5-yl}ethoxy)imidazo[1,2-a]pyridin-3-yl]-N-{[4-(trifluoromethoxy)phenyl]methyl}pyrimidin-4-amine]",78,6.8,3.3,< 15
"Cn1ncc(-c2ccc(CNc3cc(-c4cnc5cc(OCC(C)(C)O)ccn45)ncn3)cc2)n1 [A85, 2-methyl-1-(3-{6-[4-(2-methyl-2H-[1,2,3]triazol-4-yl)-benzylamino]-pyrimidin-4-yl}-imidazo[1,2-a]pyridin-7-yloxy)-propan-2-ol]",65,6.5,3.3,< 15
"CNC1CN(c2ccn3c(-c4cc(NCc5ccc(-c6cnn(C)c6)cc5)ncn4)cnc3c2)C1 [A268, N-{[4-(1-methyl-1H-pyrazol-4-yl)phenyl]methyl}-6-{7-[3-(methylamino)azetidin-1-yl]imidazo[1,2-a]pyridin-3-yl}pyrimidin-4-amine]",140,11,10,< 15
"Cn1ncc(-c2ccc(CNc3cc(-c4cnc5cc(OCCCN6CCN(C7COC7)CC6)ccn45)ncn3)cc2)n1 [A185, [4-(2-methyl-2H-[1,2,3]triazol-4-yl)-benzyl]-(6-{7-[3-(4-oxetan-3-yl-piperazin-1-yl)-propoxy]-imidazo[1,2-a]pyridin-3-yl}-pyrimidin-4-yl)-amine]",59,6.7,1.3,< 15
"COCCOc1ccn2c(-c3cc(NCc4ccc(-c5cnn(C)c5)cc4)ncn3)cnc2c1 [A4, 6-[7-(2-methoxyethoxy)imidazo[1,2-a]pyridin-3-yl]-N-{[4-(1-methyl-1H-pyrazol-4-yl)phenyl]methyl}pyrimidin-4-amine]",48,7.3,4.8,< 15
"Cn1ncc(-c2ccc(CNc3cc(-c4cnc5cc(OCCN6CC7(COC7)C6)ccn45)ncn3)cc2)n1 [A108, [4-(2-methyl-2H-[1,2,3]triazol-4-yl)-benzyl]-(6-{7-[2-(2-oxa-6-aza-spiro[3.3]hept-6-yl)-ethoxy]-imidazo[1,2-a]pyridin-3-yl}-pyrimidin-4-yl)-amine]",40,3.3,1.5,< 15
"Cn1cc(-c2ccc(CNc3cc(-c4cnc5cc(-n6cncn6)ccn45)ncn3)cc2)cn1 [A266, N-{[4-(1-methyl-1H-pyrazol-4-yl)phenyl]methyl}-6-[7-(1H-1,2,4-triazol-1-yl)imidazo[1,2-a]pyridin-3-yl]pyrimidin-4-amine]",130,7.9,5.1,< 15
"Cn1cc(-c2ccc(CNc3cc(-c4cnc5cc(OCCCNC6COC6)ccn45)ncn3)cc2)cn1 [A258, N-{[4-(1-methyl-1H-pyrazol-4-yl)phenyl]methyl}-6-(7-{3-[(oxetan-3-yl)amino]propoxy}imidazo[1,2-a]pyridin-3-yl)pyrimidin-4-amine]",56,5.1,2.7,< 15
"CN1CCC(COc2ccn3c(-c4cc(NCc5ccc(-c6cnn(C)c6)cc5)ncn4)cnc3c2)CC1 [A62, {6-[7-(1-methyl-piperidin-4-ylmethoxy)-imidazo[1,2-a]pyridin-3-yl]-pyrimidin-4-yl}-[4-(1-methyl-1H-pyrazol-4-yl)-benzyl]-amine]",32,4.1,3.7,< 15
"FC1(F)CCN(c2ccc(CNc3cc(-c4cnc5ccccn45)ncn3)cn2)C1 [A150, [6-(3,3-difluoro-pyrrolidin-1-yl)-pyridin-3-ylmethyl]-(6-imidazo[1,2-a]pyridin-3-yl-pyrimidin-4-yl)-amine]",140,8.9,12,< 15
"CO[C@H]1CCN(c2ccc(CNc3cc(-c4cnc5ccccn45)ncn3)cn2)C1 [A151, 6-{imidazo[1,2-a]pyridin-3-yl}-N-({6-[(3S)-3-methoxypyrrolidin-1-yl]pyridin-3-yl}methyl)pyrimidin-4-amine]",300,15,9.9,< 15

# More lines, in order of falling IC50 [1], values ahead:
IC50 [1] [nM],IC50 (c-Kit(V654A)) [nM],IC50 [2] [nM],"efflux ratio at 2 h, 1 μM [3]",Structure (SMILES)
430,5.4,7.3,< 15,"c1ccn2c(-c3cc(NCc4ccc(N5CCCC5)nc4)ncn3)cnc2c1 [A147, (6-imidazo[1,2-a]pyridin-3-yl-pyrimidin-4-yl)-(6-pyrrolidin-1-yl-pyridin-3-ylmethyl)-amine]"
130,6.3,4.2,< 15,"COCCOc1ccn2c(-c3cc(NCc4ccc(-n5ccnn5)cc4)ncn3)cnc2c1 [A16, 6-[7-(2-methoxyethoxy)imidazo[1,2-a]pyridin-3-yl]-N-{[4-(1H-1,2,3-triazol-1-yl)phenyl]methyl}pyrimidin-4-amine]"
73,5,4.4,< 15,"Cn1cc(-c2ccc(CNc3cc(-c4cnc5cc(OCCCN6CCC(C)(F)CC6)ccn45)ncn3)cc2)cn1 [A262, 6-{7-[3-(4-fluoro-4-methylpiperidin-1-yl)propoxy]imidazo[1,2-a]pyridin-3-yl}-N-{[4-(1-methyl-1H-pyrazol-4-yl)phenyl]methyl}pyrimidin-4-amine]"
59,1.3,1.8,< 15,"COc1ccn2c(-c3cc(NCc4ccc(-c5coc(C)n5)cc4)ncn3)cnc2c1 [A42, 6-{7-methoxyimidazo[1,2-a]pyridin-3-yl}-N-{[4-(2-methyl-1,3-oxazol-4-yl)phenyl]methyl}pyrimidin-4-amine]"
57,3.7,22,< 15,"Cn1ncc(-c2ccc(CNc3cc(-c4cnc5cc(OCCO)ccn45)ncn3)cc2)n1 [A173, 2-({3-[6-({[4-(2-methyl-2H-1,2,3-triazol-4-yl)phenyl]methyl}amino)pyrimidin-4-yl]imidazo[1,2-a]pyridin-7-yl}oxy)ethan-1-ol]"
55,8.6,3.2,< 15,"COc1ccn2c(-c3cc(NCc4ccc(-c5cnn(C)c5)cc4)ncn3)cnc2c1 [A1, 6-{7-methoxyimidazo[1,2-a]pyridin-3-yl}-N-{[4-(1-methyl-1H-pyrazol-4-yl)phenyl]methyl}pyrimidin-4-amine]"
54,2.1,1.4,< 15,"Cc1nc(-c2ccc(CNc3cc(-c4cnc5cc(OCCN6CCC(=O)N(C)CC6)ccn45)ncn3)cc2)co1 [A261, 4-methyl-1-[2-({3-[6-({[4-(2-methyl-1,3-oxazol-4-yl)phenyl]methyl}amino)pyrimidin-4-yl]imidazo[1,2-a]pyridin-7-yl}oxy)ethyl]-1,4-diazepan-5-one]"
50,7.3,3.9,< 15,"Cn1cc(-c2ccc(CNc3cc(-c4cnc5cc(OCCN6CCOCC6)ccn45)ncn3)cc2)cn1 [A56, [4-(1-methyl-1H-pyrazol-4-yl)-benzyl]-{6-[7-(2-morpholin-4-yl-ethoxy)-imidazo[1,2-a]pyridin-3-yl]-pyrimidin-4-yl}-amine]"
33,3.8,1.8,< 15,"Cn1ncc(-c2ccc(CNc3cc(-c4cnc5cc(OCCCNC6COC6)ccn45)ncn3)cc2)n1 [A259, N-{[4-(2-methyl-2H-1,2,3-triazol-4-yl)phenyl]methyl}-6-(7-{3-[(oxetan-3-yl)amino]propoxy}imidazo[1,2-a]pyridin-3-yl)pyrimidin-4-amine]"
